The record followed here is DBAASP.

Structures are written as SMILES. ≈ marks a conversion by molar mass, not a printed value. Where “and” joins values, the source holds several entries; their conditions need not be identical. Identical values can stand only once.

Test systems include Escherichia coli UB1005; Ralstonia pickettii; Staphylococcus aureus; Candida albicans; Pseudomonas fluorescens; Pseudomonas aeruginosa; Bacillus subtilis PY22; Candida krusei ATCC 6258; Klebsiella pneumoniae; Aspergillus fumigatus; Pasteurella multocida; Bibersteinia trehalosi.
Common to all, as to assay: ≥ marks a high value that may be exact or a test limit, other limits are often not marked, values filed in µg/mL are converted to µM
Experiment [1] has as its system Staphylococcus aureus ATCC BAA-1556.
Experiment [2] concerns Escherichia coli ATCC 25922.
Experiment [3] has as its system Trichophyton mentagrophytes TIMM 1189.
Experiment [4] deals with Candida albicans TIMM 0144.
In experiment [5] the test system is Pseudomonas aeruginosa H374.
Experiment [6] has as its system Pseudomonas aeruginosa Z61.
The test system of experiment [7] is Pseudomonas aeruginosa H744.
The test system of experiment [8] is Salmonella enterica subsp. enterica serovar Typhimurium ATCC 14028s.
The test system of experiment [9] is Pseudomonas aeruginosa H547.
The test system of experiment [10] is Pseudomonas aeruginosa K799.
In experiment [11] the test system is Pseudomonas aeruginosa M917.
Experiment [12] concerns Pseudomonas aeruginosa R70.
The subject of experiment [13] is Stenotrophomonas maltophilia.
The subject of experiment [14] is Pseudomonas aeruginosa M1426.
Experiment [15] has as its system Pseudomonas aeruginosa M76.
Experiment [16] relates to Pseudomonas aeruginosa M1251.
Experiment [17] deals with Pseudomonas aeruginosa PAO1.
The subject of experiment [18] is Salmonella enterica serovar Typhimurium.
Experiment [19] concerns Achromobacter xylosoxidans.
For experiment [20], the system named is Escherichia coli DH5alpha.
The test system of experiment [21] is Candida glabrata ATCC 2001.
The test system of experiment [22] is Staphylococcus aureus ATCC 29213.
For experiment [23], the system named is Pseudomonas aeruginosa ATCC 27853.
Experiment [24] has as its system Candida albicans ATCC 10231.
Experiment [25] has as its system Candida tropicalis ATCC 750.
The test system of experiment [26] is Candida parapsilosis ATCC 90018.
Experiment [27] deals with Mannheimia haemolytica Serovar 1.
Experiment [28] concerns Corynebacterium pseudotuberculosis ATCC 19410.
The subject of experiment [29] is Mannheimia haemolytica Serovar 6.
Experiment [30] has as its system Mannheimia haemolytica Serovar 2.
Experiment [31] has as its system Salmonella enterica subsp. arizonae.

The MIC is the lowest concentration found to suppress growth. A high value points to a need for much substance.

Take `CC(C)C[C@H](NC(=O)[C@H](CC(C)C)NC(=O)[C@H](CCCCN)NC(=O)[C@H](CC(C)C)NC(=O)[C@H](CC(C)C)NC(=O)[C@H](CC(C)C)NC(=O)[C@H](CCCCN)NC(=O)[C@@H](N)CC(C)C)C(N)=O` [LKLLLKLL]: in experiment [1], the MIC was at least 100 µM.
In the case of `CC[C@H](C)[C@H](NC(=O)[C@@H]1CSSC[C@H](NC(=O)[C@H](CCCCN)NC(=O)[C@@H](N)[C@@H](C)O)C(=O)N[C@@H](Cc2ccccc2)C(=O)N[C@@H](CCC(N)=O)C(=O)N[C@@H](Cc2c[nH]c3ccccc23)C(=O)N[C@@H](CCC(N)=O)C(=O)N[C@@H](CCCN=C(N)N)C(=O)N[C@@H](CC(N)=O)C(=O)N[C@@H](CCSC)C(=O)N[C@@H](CCCN=C(N)N)C(=O)N[C@@H](CCCCN)C(=O)N[C@@H](C(C)C)C(=O)N[C@@H](CCCN=C(N)N)C(=O)NCC(=O)N2CCC[C@H]2C(=O)N2CCC[C@H]2C(=O)N[C@@H](C(C)C)C(=O)N[C@@H](CO)C(=O)N1)C(=O)N[C@@H](CCCCN)C(=O)N[C@@H](CCCN=C(N)N)C(=O)N[C@@H](CC(=O)O)C(=O)N[C@@H](CO)C(=O)O` [TKCFQWQRNMRKVRGPPVSCIKRDS], the figures for the minimum inhibitory concentration (MIC) in experiment [2], in [3] and in experiment [4] were over 128 µM, 16.5 µM (≈ 50 µg/mL) and at least 33.1 µM, respectively.
Consider `CC[C@H](C)[C@H](NC(=O)[C@H](CC(C)C)NC(=O)[C@H](C)NC(=O)[C@@H]1CCCN1C(=O)[C@H](CC(C)C)NC(=O)CNC(=O)[C@@H](NC(=O)[C@@H](NC(=O)[C@H](CC(C)C)NC(=O)[C@@H](NC(=O)[C@H](CCCCN)NC(=O)[C@H](CO)NC(=O)CNC(=O)CNC(=O)[C@H](CCCCN)NC(=O)[C@@H](NC(=O)[C@H](CC(C)C)NC(=O)[C@H](CC(N)=O)NC(=O)[C@H](CCCCN)NC(=O)[C@@H](NC(=O)[C@H](Cc1ccccc1)NC(=O)[C@H](CCCCN)NC(=O)[C@H](CCCCN)NC(=O)[C@H](Cc1c[nH]c2ccccc12)NC(=O)[C@@H](N)CCCCN)[C@@H](C)CC)[C@@H](C)O)[C@@H](C)CC)[C@@H](C)O)[C@@H](C)O)C(=O)N[C@@H](CO)C(=O)O` [KWKKFIKNLTKGGSKILTTGLPALIS], for which the MIC in [5] worked out at 1.41 µM (≈ 4 µg/mL); in [6], 6.68 µM (≈ 19 µg/mL); in experiment [7], 1.41 µM (≈ 4 µg/mL); with Escherichia coli UB1005, 0.703 µM (≈ 2 µg/mL); in [8] it was 5.63 µM (≈ 16 µg/mL); in [9] it was 5.63 µM (≈ 16 µg/mL). The MIC in experiment [10] came out at 11.3 µM (≈ 32 µg/mL).
For the compound `CC(C)C[C@H](NC(=O)[C@H](C)NC(=O)[C@H](CC(C)C)NC(=O)[C@H](C)NC(=O)[C@H](CC(C)C)NC(=O)[C@H](CCCCN)NC(=O)[C@H](C)NC(=O)[C@H](CC(C)C)NC(=O)[C@H](CCCCN)NC(=O)[C@H](CCCCN)NC(=O)[C@H](C)NC(=O)[C@H](CC(C)C)NC(=O)[C@H](CCCCN)NC(=O)[C@H](C)NC(=O)[C@H](CC(C)C)NC(=O)[C@H](CCCCN)NC(=O)[C@H](CCCCN)NC(=O)[C@H](C)NC(=O)[C@@H](N)C(C)C)C(N)=O` [VAKKLAKLAKKLAKLALAL], the MIC was 4.02 µM (≈ 8 µg/mL) against Ralstonia pickettii; 16.1 µM (≈ 32 µg/mL) against Staphylococcus aureus; 8.03 µM (≈ 16 µg/mL) against Candida albicans; 8.03 µM (≈ 16 µg/mL) in experiment [11]; at least 32.1 µM in the experiment on Escherichia coli UB1005; 4.02 µM (≈ 8 µg/mL) in [12]. Further, the MIC with Pseudomonas fluorescens turned out to be 4.02 µM (≈ 8 µg/mL); in experiment [13], 2.01 µM (≈ 4 µg/mL); in [14], 4.02 µM (≈ 8 µg/mL); in [15], 4.02 µM (≈ 8 µg/mL); in experiment [16], 4.02 µM (≈ 8 µg/mL); in [17], 16.1 µM (≈ 32 µg/mL). Further, the minimal inhibitory concentration (MIC) was 4.02 µM and 5.68 µM against Pseudomonas aeruginosa; at least 32.1 µM in experiment [18]; at least 32.1 µM in experiment [19].
For `CC(=O)N[C@@H](CCCN=C(N)N)C(=O)N[C@@H](Cc1c[nH]c2ccccc12)C(=O)N[C@@H](CCCN=C(N)N)C(=O)N[C@@H](Cc1ccccc1)C(=O)N[C@@H](Cc1c[nH]c2ccccc12)C(=O)N[C@@H](CCCN=C(N)N)C(N)=O` [RWRFWR], the minimum inhibitory concentration (MIC) in the experiment with Bacillus subtilis PY22 was 31.3 µM (≈ 32.8 µg/mL); in experiment [20], at least 125 µM.
For the compound `CC[C@H](C)[C@H](NC(=O)CN)C(=O)N[C@@H](CC(C)C)C(=O)N[C@@H](CC(=O)O)C(=O)N[C@H](C(=O)N[C@@H](CCCCN)C(=O)N[C@@H](CC(N)=O)C(=O)N[C@@H](CCCCN)C(=O)N[C@H](C(=O)N[C@@H](CO)C(=O)N[C@@H](CC(N)=O)C(=O)N[C@@H](CC(C)C)C(=O)N[C@@H](Cc1ccccc1)C(N)=O)C(C)C)[C@@H](C)CC` [GILDIKNKVSNLF], the MIC was 62.5 µM (≈ 91.2 µg/mL) in [2]; at least 250 µM in experiment [21]; 31.2 µM (≈ 45.5 µg/mL) in experiment [22]; 62.5 µM (≈ 91.2 µg/mL) in experiment [23]; 62.5 µM (≈ 91.2 µg/mL) in [24]; 31.2 µM (≈ 45.5 µg/mL) in [25]. In addition, the MIC against Candida krusei ATCC 6258 was at least 62.5 µM; in [26] it was at least 125 µM.
Regarding `CC[C@H](C)[C@H](NC(=O)[C@@H](NC(=O)[C@H](Cc1cnc[nH]1)NC(=O)[C@@H](NC(=O)[C@@H](NC(=O)[C@H](CCCCN)NC(=O)[C@H](CCCN=C(N)N)NC(=O)[C@@H](NC(=O)[C@@H](NC(=O)[C@H](CCCN=C(N)N)NC(=O)[C@@H](N)CCCN=C(N)N)[C@@H](C)CC)[C@@H](C)CC)[C@@H](C)CC)[C@@H](C)CC)[C@@H](C)CC)C(N)=O` [RRIIRKIIHII], the MIC in experiment [27] is 11.7 µM (≈ 16.7 µg/mL); in the experiment with Staphylococcus aureus, over 14 µM; with Klebsiella pneumoniae it was 10.5 µM (≈ 15 µg/mL); in the experiment on Aspergillus fumigatus, 14 µM (≈ 20 µg/mL); in experiment [28] it was 14 µM (≈ 20 µg/mL); in experiment [29], 5.8 µM (≈ 8.29 µg/mL). In addition, the MIC was found to be 14 µM (≈ 20 µg/mL) with Pasteurella multocida; 5.8 µM (≈ 8.29 µg/mL) in experiment [30]; 14 µM (≈ 20 µg/mL) in the experiment on Bibersteinia trehalosi; 14 µM (≈ 20 µg/mL) in experiment [31]; 14 µM (≈ 20 µg/mL) in [17].
